Assay results as given in patent publication US11395847B2, “Acylated GLP-1/GLP-2 dual agonists” (Zealand Pharma A/S, priority 2016, dated 2022).
Like-named read-outs stand apart in the source and are kept apart here. Where a SMILES comes first, the peptide text is derived from it.

Legend:
[1] = target: T1, human GLP-1 receptor (Homo sapiens, UniProt P43220); assay: GLP-1 receptor potency assay (cAMP ALPHASCREEN, HEK293 cells stably expressing GLP-1 R); assay type: cell-based; details: cAMP response, HEK293 cells expressing human GLP-1 R
T1 construct: expressed in transfected cells
Source text: One useful in vitro assay for measuring GLP-1 and GLP-2 receptor activity is quantitation of cAMP, i.e. 3′-5′-cyclic adenosine monophosphate, which is a second messenger essential in many biological processes, and one of the most ubiquitous mechanisms for regulating cellular functions.
The cDNA encoding the human glucagon-like peptide 1 receptor (GLP-1 R) (primary accession number P43220) was cloned from the cDNA BC112126 (MGC:138331/IMAGE:8327594). The DNA encoding the GLP-1-R was amplified by PCR using primers encoding terminal restriction sites for subcloning. The 5′-end primers additionally encoded a near Kozak consensus sequence to ensure efficient translation. […] The PCR products encoding the GLP-1-R were subcloned into a mammalian expression vector containing a neomycin (G418) resistance marker. The mammalian expression vectors encoding the GLP-1-R were transfected into HEK293 cells by a standard calcium phosphate transfection method. 48 hours post-transfection, cells were seeded for limited dilution cloning and selected with 1 mg/ml G418 in the culture medium. Following 3 weeks in G418 selection clones were picked and tested in a functional GLP-1 receptor potency assay as described below.
The cAMP ALPHASCREEN® assay from Perkin Elmer was used to quantitate the cAMP response to activation of the GLP1 and GLP2 receptor, respectively. […] Data from test compounds eliciting an increase in the intracellular level of cAMP were normalized relative to the positive and negative control (vehicle) to calculate the EC50 and maximal response from the concentration response curve.

[2] = target: T2, human GLP-2 receptor (Homo sapiens, UniProt O95838, D470N); assay: GLP-2 receptor potency assay (cAMP ALPHASCREEN, HEK293 cells stably expressing GLP-2 R); assay type: cell-based; details: cAMP response, HEK293 cells expressing human GLP-2 R; read-out: EC50 GLP-2
T2 construct: expressed in transfected cells
T2 sequence (O95838 1-553 D470N): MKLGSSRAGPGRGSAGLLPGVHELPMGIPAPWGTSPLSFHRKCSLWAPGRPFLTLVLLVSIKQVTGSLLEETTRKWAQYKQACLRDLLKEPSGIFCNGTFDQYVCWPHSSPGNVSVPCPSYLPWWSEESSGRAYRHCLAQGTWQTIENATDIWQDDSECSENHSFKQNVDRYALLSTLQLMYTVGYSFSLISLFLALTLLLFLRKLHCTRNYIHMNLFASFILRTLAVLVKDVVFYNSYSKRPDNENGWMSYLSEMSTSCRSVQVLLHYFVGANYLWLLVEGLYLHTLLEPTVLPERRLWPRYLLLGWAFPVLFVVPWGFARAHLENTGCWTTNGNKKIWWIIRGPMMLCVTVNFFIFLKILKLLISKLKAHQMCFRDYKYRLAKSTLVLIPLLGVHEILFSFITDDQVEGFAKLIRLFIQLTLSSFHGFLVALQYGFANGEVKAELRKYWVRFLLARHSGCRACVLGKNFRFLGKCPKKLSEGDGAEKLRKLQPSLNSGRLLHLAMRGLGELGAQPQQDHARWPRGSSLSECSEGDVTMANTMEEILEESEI
Method in brief: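 HEK293 clones stably transfected with the human GLP-2 receptor, selected with G418, were used. Intracellular cAMP was quantified by AlphaScreen. Responses were normalised to positive and vehicle controls, and EC50 and maximal response were taken from concentration-response curves.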

[3] = Solubility assessment (turbidity absorbance at 325 nm); assay type: physicochemical
Method in brief: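 Peptide stock at 2 mg/ml in water at pH 2.5 diluted 1:1 into 100 mM acetate (pH 4.0, 5.0), histidine (pH 6.0, 7.0) or phosphate (pH 6.0, 7.0, 7.5) buffer. Absorbance at 280 and 325 nm read at ambient temperature (typically 25 °C), single samples (n=1).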

[4] = Chemical stability (RP-HPLC normalized purity after incubation at 40° C.); assay type: physicochemical; details: 14-day incubation, 0.2 mg/ml, normalized purity (area-%); for pH 6 normalized stability: pH 6, 40° C.; for pH 7 normalized stability: pH 7, 40° C.
Method in brief: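 Peptide at 0.2 mg/ml final in water adjusted to pH 6, 7, 7.5 or 9, incubated at 40° C for 14 days. Purity measured as main-peak area-% by C18 RP-HPLC (acetonitrile/TFA/water gradient, UV 220 nm) and normalized to T=0 set at 100 for each pH.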

[5] = 100 mM acetate buffer pH 4.0, ambient temperature, read-out: Solubility Acetate buffer pH 4
[6] = 100 mM acetate buffer pH 5.0, ambient temperature, read-out: Solubility Acetate buffer pH 5
[7] = 100 mM histidine buffer pH 6.0, ambient temperature, read-out: Solubility Histidine buffer pH 6
[8] = 100 mM histidine buffer pH 7.0, ambient temperature, read-out: Solubility Histidine buffer pH 7
[9] = 100 mM phosphate buffer pH 6.0, ambient temperature, read-out: Solubility Phosphate buffer pH 6
[10] = 100 mM phosphate buffer pH 7.0, ambient temperature, read-out: Solubility Phosphate buffer pH 7
[11] = 100 mM phosphate buffer pH 7.5, ambient temperature, read-out: Solubility Phosphate buffer pH 7.5

T1 sequence (P43220 24-463): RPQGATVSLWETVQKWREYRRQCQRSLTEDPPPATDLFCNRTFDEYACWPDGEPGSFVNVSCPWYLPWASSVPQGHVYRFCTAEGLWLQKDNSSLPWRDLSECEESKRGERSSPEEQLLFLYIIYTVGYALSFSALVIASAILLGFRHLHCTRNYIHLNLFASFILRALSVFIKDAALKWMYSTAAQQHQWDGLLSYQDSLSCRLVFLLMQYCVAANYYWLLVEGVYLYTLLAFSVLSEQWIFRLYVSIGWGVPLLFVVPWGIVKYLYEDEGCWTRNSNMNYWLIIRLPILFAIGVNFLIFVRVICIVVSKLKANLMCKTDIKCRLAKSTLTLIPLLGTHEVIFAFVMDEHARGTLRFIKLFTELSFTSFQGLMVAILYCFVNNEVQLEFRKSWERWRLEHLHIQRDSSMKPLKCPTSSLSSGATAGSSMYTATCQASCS

SMILES	EC50 [1]	EC50 [2]	solubility [3, 5]	solubility [3, 6]	solubility [3, 7]	solubility [3, 8]	solubility [3, 9]	solubility [3, 10]	solubility [3, 11]	pH 6 normalized stability [4]	pH 7 normalized stability [4]
CC[C@H](C)[C@H](NC(=O)[C@H](CC(C)C)NC(=O)[C@H](Cc1c[nH]c2ccccc12)NC(=O)[C@H](C)NC(=O)[C@@H](NC(=O)[C@H](Cc1ccccc1)NC(=O)[C@H](CC(=O)O)NC(=O)[C@H](CCCNC(=N)N)NC(=O)[C@H](C)NC(=O)[C@H](C)NC(=O)[C@H](CC(C)C)NC(=O)[C@H](CCCCNC(=O)CC[C@H](NC(=O)CCCCCCCCCCCCCCCCC(=O)O)C(=O)O)NC(=O)[C@H](CC(=O)O)NC(=O)[C@H](CC(C)C)NC(=O)[C@@H](NC(=O)[C@@H](NC(=O)[C@H](C)NC(=O)[C@H](CC(C)C)NC(=O)[C@H](CCC(=O)O)NC(=O)[C@H](CO)NC(=O)[C@@H](NC(=O)[C@H](Cc1ccccc1)NC(=O)[C@@H](NC(=O)CNC(=O)[C@H](CCC(=O)O)NC(=O)C(C)(C)NC(=O)[C@@H](N)Cc1c[nH]cn1)[C@@H](C)O)[C@@H](C)O)[C@@H](C)O)[C@@H](C)CC)[C@@H](C)CC)C(=O)N[C@@H](C)C(=O)N[C@@H](Cc1c[nH]cn1)C(=O)N[C@@H](CCCCN)C(=O)N[C@H](C(=O)N[C@H](C(=O)N[C@@H](CC(=O)O)C(=O)O)[C@@H](C)O)[C@@H](C)CC [Compound 15] (HELM PEPTIDE1{H.[Aib].E.G.T.F.T.S.E.L.A.T.I.L.D.K.L.A.A.R.D.F.I.A.W.L.I.A.H.K.I.T.D}|PEPTIDE2{[O=C(O)CCCCCCCCCCCCCCCCC(=O)[*:2]].[gGlu]}$PEPTIDE1,PEPTIDE2,16:R3-2:R2$$$V2.0)	0.25 nM	–	–	–	–	–	–	–	–	–	–
CC[C@H](C)[C@H](NC(=O)[C@H](CC(C)C)NC(=O)[C@H](Cc1c[nH]c2ccccc12)NC(=O)[C@H](C)NC(=O)[C@@H](NC(=O)[C@H](Cc1ccccc1)NC(=O)[C@H](CC(=O)O)NC(=O)[C@H](CCCNC(=N)N)NC(=O)[C@H](C)NC(=O)[C@H](C)NC(=O)[C@H](CCC(N)=O)NC(=O)[C@H](CCCCNC(=O)CC[C@H](NC(=O)CCCCCCCCCCCCCCCCC(=O)O)C(=O)O)NC(=O)[C@H](CC(=O)O)NC(=O)[C@H](CC(C)C)NC(=O)[C@@H](NC(=O)[C@@H](NC(=O)[C@H](C)NC(=O)[C@H](CC(C)C)NC(=O)[C@H](CCC(=O)O)NC(=O)[C@H](CO)NC(=O)[C@@H](NC(=O)[C@H](Cc1ccccc1)NC(=O)[C@H](CO)NC(=O)CNC(=O)[C@H](CCC(=O)O)NC(=O)C(C)(C)NC(=O)[C@@H](N)Cc1c[nH]cn1)[C@@H](C)O)[C@@H](C)O)[C@@H](C)CC)[C@@H](C)CC)C(=O)N[C@@H](C)C(=O)N[C@@H](Cc1c[nH]cn1)C(=O)N[C@@H](CCCCN)C(=O)N[C@H](C(=O)N[C@H](C(=O)N[C@@H](CC(=O)O)C(=O)O)[C@@H](C)O)[C@@H](C)CC [Compound 22] (HELM PEPTIDE1{H.[Aib].E.G.S.F.T.S.E.L.A.T.I.L.D.K.Q.A.A.R.D.F.I.A.W.L.I.A.H.K.I.T.D}|PEPTIDE2{[O=C(O)CCCCCCCCCCCCCCCCC(=O)[*:2]].[gGlu]}$PEPTIDE1,PEPTIDE2,16:R3-2:R2$$$V2.0)	–	0.2 nM	< 1000 µg/mL	< 1000 µg/mL	≥ 1000 µg/mL	≥ 1000 µg/mL	≥ 1000 µg/mL	≥ 1000 µg/mL	≥ 1000 µg/mL	A (>90% normalised stability)	B (>80% stability)
CC[C@H](C)[C@H](NC(=O)[C@H](Cc1ccccc1)NC(=O)[C@H](CC(=O)O)NC(=O)[C@H](CCCNC(=N)N)NC(=O)[C@H](C)NC(=O)[C@H](C)NC(=O)[C@H](CCC(N)=O)NC(=O)[C@H](CCCCNC(=O)CC[C@H](NC(=O)CCCCCCCCCCCCCCCCC(=O)O)C(=O)O)NC(=O)[C@H](CC(=O)O)NC(=O)[C@H](CC(C)C)NC(=O)[C@@H](NC(=O)[C@@H](NC(=O)[C@H](C)NC(=O)[C@H](CC(C)C)NC(=O)[C@H](CCC(=O)O)NC(=O)[C@H](CO)NC(=O)[C@@H](NC(=O)[C@H](Cc1ccccc1)NC(=O)[C@H](CO)NC(=O)CNC(=O)[C@H](CCC(=O)O)NC(=O)C(C)(C)NC(=O)[C@@H](N)Cc1c[nH]cn1)[C@@H](C)O)[C@@H](C)O)[C@@H](C)CC)C(=O)N[C@@H](C)C(=O)N[C@@H](Cc1c[nH]c2ccccc12)C(=O)N[C@@H](CC(C)C)C(=O)N[C@H](C(=O)N[C@@H](CCC(=O)O)C(=O)N[C@@H](Cc1c[nH]cn1)C(=O)N[C@@H](CCCCN)C(=O)N[C@H](C(=O)N[C@H](C(=O)N[C@@H](CC(=O)O)C(=O)O)[C@@H](C)O)[C@@H](C)CC)[C@@H](C)CC [Compound 24] (HELM PEPTIDE1{H.[Aib].E.G.S.F.T.S.E.L.A.T.I.L.D.K.Q.A.A.R.D.F.I.A.W.L.I.E.H.K.I.T.D}|PEPTIDE2{[O=C(O)CCCCCCCCCCCCCCCCC(=O)[*:2]].[gGlu]}$PEPTIDE1,PEPTIDE2,16:R3-2:R2$$$V2.0)	–	0.17 nM	< 1000 µg/mL	< 1000 µg/mL	≥ 1000 µg/mL	≥ 1000 µg/mL	≥ 1000 µg/mL	≥ 1000 µg/mL	≥ 1000 µg/mL	B (>80% stability)	A (>90% normalised stability)
CC[C@H](C)[C@H](NC(=O)[C@H](Cc1ccccc1)NC(=O)[C@H](CC(=O)O)NC(=O)[C@H](CCCNC(=N)N)NC(=O)[C@H](C)NC(=O)[C@H](C)NC(=O)[C@H](CCC(N)=O)NC(=O)[C@H](CCCCNC(=O)CC[C@H](NC(=O)CCCCCCCCCCCCCCCCC(=O)O)C(=O)O)NC(=O)[C@H](CC(=O)O)NC(=O)[C@H](CC(C)C)NC(=O)[C@@H](NC(=O)[C@@H](NC(=O)[C@H](C)NC(=O)[C@H](CC(C)C)NC(=O)[C@H](CCC(=O)O)NC(=O)[C@H](CO)NC(=O)[C@@H](NC(=O)[C@H](Cc1ccccc1)NC(=O)[C@@H](NC(=O)CNC(=O)[C@H](CCC(=O)O)NC(=O)C(C)(C)NC(=O)[C@@H](N)Cc1c[nH]cn1)[C@@H](C)O)[C@@H](C)O)[C@@H](C)O)[C@@H](C)CC)C(=O)N[C@@H](C)C(=O)N[C@@H](Cc1c[nH]c2ccccc12)C(=O)N[C@@H](CC(C)C)C(=O)N[C@H](C(=O)N[C@@H](CCC(=O)O)C(=O)N[C@@H](Cc1c[nH]cn1)C(=O)N[C@@H](CCCCN)C(=O)N[C@H](C(=O)N[C@H](C(=O)N[C@@H](CC(=O)O)C(=O)O)[C@@H](C)O)[C@@H](C)CC)[C@@H](C)CC [Compound 25] (HELM PEPTIDE1{H.[Aib].E.G.T.F.T.S.E.L.A.T.I.L.D.K.Q.A.A.R.D.F.I.A.W.L.I.E.H.K.I.T.D}|PEPTIDE2{[O=C(O)CCCCCCCCCCCCCCCCC(=O)[*:2]].[gGlu]}$PEPTIDE1,PEPTIDE2,16:R3-2:R2$$$V2.0)	–	0.33 nM	< 1000 µg/mL	< 1000 µg/mL	≥ 1000 µg/mL	≥ 1000 µg/mL	≥ 1000 µg/mL	≥ 1000 µg/mL	≥ 1000 µg/mL	–	A (>90% normalised stability)
